Reference: a melting point compilation (Tetko et al.; mined from patent text by program, amines drawn as free bases though some values may be those of a salt)

| SMILES | melting point [°C] |
| --- | --- |
| O=C(Nc1nncs1)C(=O)c1cn(Cc2ccc(F)cc2)c2ccccc12 | 218 to 220 |
| O=C(O)C(=O)CC(=O)c1cccn1Cc1cc(F)cc(F)c1 | 166 to 168 |
| O=C1NCC=NN1c1cc(Cl)cc(Cl)c1 | 179 to 181 |
| N#CC1=Cc2ccccc2C(N2CCN(N=Cc3ccccn3)CC2)c2ccccc21 (stereo not drawn) | 182 to 184 |
| CCCC(=CC(=O)O)CCC | 20 |
| Cc1ccc(-c2ncc(-c3cccs3)s2)cc1 | 85.5 to 86.5 |
| Cn1ccc2cc(NC(=O)CC34CC5CC(CC(C5)C3)C4)ccc21 | 183 to 184 |
| CC1(C)SC(c2cccnc2)NC1C(=O)O (stereo not drawn) | 164 to 165 |
| CN1CCC[C@H]1c1cnc(Cl)cc1P(C(C)(C)C)C(C)(C)C | 125 to 127 |
| CCCCCCCCCCCC#Cc1cnccc1C=CC(=O)O | 177 to 178 |
| COc1ccc2ncc3c(c2c1)[C@@H](O)C(OC)(OC)C[C@@H]3C | 135 to 136 |
| CC(=O)SCC(CC(C)C)C(=O)Nc1cc(C)cc(C(=O)O)c1 (stereo not drawn) | 185 to 187 |
| CS(=O)(=O)c1ccc(-c2cnn(-c3ccc([N+](=O)[O-])s3)c(=O)c2-c2ccc(F)cc2)cc1 | 252 to 253 |
| CCC(C#N)(Cn1cncn1)c1ccc(Br)cc1 (stereo not drawn) | 68 to 70 |
| CC(c1ccc(O)cc1)(c1ccc(O)cc1)c1ccc(-c2ccccc2)cc1 | 182 to 183 |
| CCCCCCCCCCN(O)C(=O)NC | 96 to 97 |
| FC(F)(F)c1ccc2nccc(Br)c2c1 | 56 |
| CC(=O)N1CCN=C1Nc1c(C)c(C)nn1C | 212 to 215 |
| O=C1CCC(=NNc2ccccc2)c2ncccc2N1 | 206 |
| C=CCOc1cc(CNc2nc(C)nc(C)c2Cl)ccc1O | 124 to 126 |
| Clc1cncc(Cl)c1CBr | 40 to 44 |
| O=C(CCCC1CCCCC1)N[C@H]1CO[C@H]2[C@@H]1OC[C@@H]2NC(=O)C1CC1 | 182 |
| Cc1cccc2cc(C3CCN(C)CC3)[nH]c(=O)c12 | 200 to 202 |

| SMILES | melting point [°C] |
| --- | --- |
| CCOC(=O)c1cncc(C(=O)OCC)c1 | 42 to 44 |
| Clc1ccccc1C(Oc1ccccc1)C1CNCCO1 (stereo not drawn) | 80 to 102 |
| O=C(c1cc2ccccc2[nH]1)C1CSC(c2cccnc2)N1 (stereo not drawn) | 142 to 144 |
| O=C(NC1C2CC3CC(C2)CC1C3)C1CCCCN1 (stereo not drawn) | 112 to 114 |
| COC(=O)c1cc2c(cc1N)OCCO2 | 73 to 77 |
| Cc1cc(N(C)C(=O)OC(C)(C)C)c(C)c(C)c1O | 163 to 166 |
| NS(=O)(=O)c1cccc(Cl)c1C=C1CCOC1=O | 172 to 174 |
| CC12CCC(CC1=O)C(C)(C)O2 (stereo not drawn) | 40 to 48 |
| CNc1cc2c(Nc3ccc(Sc4nccn4C)c(Cl)c3)c(C#N)cnc2cc1N1CCC(N2CCCC2)CC1 | 242 to 250 |
| CCC1C(C)=NN=C(c2ccc(O)c(OC)c2)c2cc(O)c(O)cc21 (stereo not drawn) | 252 to 253 |
| NS(=O)(=O)c1cccc(C2(O)CCCC2)c1 | 155 |
| Nc1cccc2c1CN(C(CCC(=O)O)C(=O)O)C2=O (stereo not drawn) | 183 to 185 |
| O=C(CCc1ccccc1)Nc1cc(C(=O)O)ccn1 | 266 to 267 |
| CCCCn1c(=O)n(CCC)c(=O)c2[nH]c(C)nc21 | 174 to 175 |
| COc1ccc(-c2nc3ccccc3o2)cc1 | 99.5 to 102 |
| O=S(=O)(c1ccccc1)n1cnc(-c2ccc(F)cc2)c1-c1ccc(F)cc1 | 172 to 175 |
| CP(C)(=O)C(CC(=O)O)C(=O)O (stereo not drawn) | 174 to 177 |
| CCOC(=O)C(=O)c1cc(O)c(O)c([N+](=O)[O-])c1 | 77 to 79 |
| N#Cc1ccc(OCc2ccc(C=Cc3ccncc3)cc2)cc1 | 149 to 150 |
| COC(=O)c1cc(Nc2ccccc2)c(Nc2ccccc2)cc1C(=O)OC | 178 |
| C#CCN1Cc2cccnc2N(c2cccc(Br)c2)C1=O | 118 to 119 |
| CN(C(=O)Oc1ccc(Cl)c(C(C)(C)C)c1)c1ccc(F)cc1 | 92 to 94 |
| COCC(NC(C)=O)C(=O)NCc1ccccc1 (stereo not drawn) | 142 to 143 |

The remaining lines, values ahead:

| melting point [°C] | SMILES |
| --- | --- |
| 270 | CC(C)COc1cc(-c2ccc(N)c(OCC(C)C)c2)ccc1N |
| 105 to 108 | COC(=O)CCc1cc2cc(Cl)ccc2n1S(=O)(=O)c1cccc(C)c1 |
| 290 to 291 | O=C1CC(c2ccccc2O)=Nc2ccc(N3CCOCC3)cc21 |
| 293 to 294 | O=C(O)c1ccc2oc3ncccc3c(=O)c2c1 |
| 222 | CCOCN1C2=C(C(=O)CCC2)C(c2cccc([N+](=O)[O-])c2)C2=C1CCCC2=O |
| 173 to 174 | NC(=O)CCCCC1(c2ccccc2)CC(O)=CC(=O)O1 (stereo not drawn) |
| 129 to 131 | Cc1nc(-c2ccccc2)nc(-c2ccc(O)c(N)c2)c1C(=O)N1CCN(C)CC1 |
| 228 to 229 | COc1c(C(=O)Nc2ccc(N(C(C)=O)S(C)(=O)=O)cc2)cc(N2CCC(=O)NC2=O)cc1C(C)(C)C |
| 205 | CN1C(=O)CC(c2ccc(CO)cc2)C1C(O)c1ccc(-c2ccccc2)s1 (stereo not drawn) |
| 156 to 158 | CC(C)C(=O)N1CCN(c2ccc(NC(=O)c3ccccn3)cc2Cl)CC1 |
| 142 to 144 | CC(=O)c1ccc(Nc2cccc(Br)c2)c([N+](=O)[O-])c1 |
| 168 to 170 | C=CC(c1ccc(F)cc1)c1c(C)c(NC=O)c(C)c(C)c1O (stereo not drawn) |
| 202 to 204 | COc1cc(Nc2nc(-c3ccc(Cl)cc3)cc(C(F)(F)F)n2)ccc1-n1cnc(C)c1 |
| 86 to 88 | COCc1oc(-c2nn(Cc3ccccc3F)c3ccccc23)nc1C |
| 178 to 182 | NNC(=O)CSc1nc(Cl)cc(NCc2ccc(Cl)cc2)n1 |
| 114 to 116 | CCOC(=O)C1CCC2(CCN(S(=O)(=O)c3ccc(C)cc3)c3ccccc3C2)C1=O (stereo not drawn) |
| 148 to 150 | CCC1(CC)OC(=S)Nc2ccc(-c3cccc(Cl)c3)cc21 |
| 110 to 112 | O=C(NCC1CCCC1)c1ccc2[nH]ccc2c1 |
| 49 to 50 | CN(CCO)C(c1ccc(Cl)cc1)c1ccc(Cl)cc1 |

| melting point [°C] | SMILES |
| --- | --- |
| 59 to 63 | C=C=C(C)C1Oc2cccc(OC)c2-c2ccc3c(c21)C(C)=CC(C)(C)N3 (stereo not drawn) |
| 113 | C#CCN(C(=O)c1ccco1)c1c(C)cccc1C |
| 183 to 184 | COc1ccc(F)cc1C(C)(C)CC(O)(Cn1cc(CO)c(=O)c2ccccc21)C(F)(F)F (stereo not drawn) |
| 87 to 89 | CCOC(=O)C1CCC(c2ccccc2)n2c(=O)n(CCCl)c(=O)n21 (stereo not drawn) |
| 75 to 77 | COc1cccc(C23CCCC2C(=O)N(Cc2ccccc2)C(=O)C3)c1 (stereo not drawn) |
| 258 to 259 | COc1ccc(C(=O)Nc2cc(NC(=O)c3ccc(OCCN4CCCC4)cc3)ccc2C)cc1OC |
| > 310 | CS(=O)(=O)c1ccc2[nH]c(=O)c(C#N)cc2c1 |
| 122 | CCOC(=O)c1cc2c([nH]1)c(N(C)S(=O)(=O)c1cccs1)cn2CC |
| 84 | BrCc1nc(-c2ccccc2)cc2ccccc12 |
| 168 | CC(C)(C)C(=O)NCCC(=O)NC1CCCCC1Nc1cccc2c1C(=O)c1ccccc1C2=O (stereo not drawn) |
| 56 to 61 | CCOCc1nc(C(C)(C)O)c(C(=O)OCOC(=O)C(C)(C)C)n1Cc1ccc(-c2ccccc2-c2nnn[nH]2)cc1 |
| 163 to 165 | O=C1CCN2CC3c4ccccc4CCc4cccc(c43)C2C1 (stereo not drawn) |
| 192 to 193 | O=C(Nc1ccc(F)nc1)N1CCN(c2ccnc(-c3cccc(F)c3F)n2)CC1 |
| 70 to 74 | CCCCCCCCCCOc1ccc(C(=O)O[C@@H]2CC[C@H](NC(=O)[C@H](OC)[C@H](O)[C@@H](O)[C@H](O)/C=C/C(C)(C)C)C(=O)NC2)cc1 |
| 78 to 79 | CCN(CC)c1ccc(/C=C/c2ccccc2F)cc1 |
| 243 to 245 | Cc1cccc(Cl)c1NC(=O)NCc1ccc2c(c1)CN(C1CCC(=O)NC1=O)C2=O (stereo not drawn) |
| 200 to 201 | Cc1c(Cc2cccc(C(F)(F)F)c2)oc2c(-c3cccc(C(=O)O)c3)cccc12 |
| 176 to 178 | CC(C)c1cc(-c2cc(C(=O)O)ccc2S(C)(=O)=O)on1 |
| 170 to 171 | CCn1nc(OCC(=O)c2ccc(F)cc2)c(-c2ccc(F)cc2)c1-c1ccc(OC)cc1 |

| melting point [°C] | SMILES |
| --- | --- |
| 157 to 160 | CCOC(=O)c1ccc(NC(=O)[C@H](CO)NS(=O)(=O)c2ccc(Cl)cc2)cc1 |
| 148 to 154 | CCCN(CCCc1c[nH]c2ccc(Cl)cc12)C1COc2c(F)ccc(C(N)=O)c2C1 (stereo not drawn) |
| 225 to 227 | COc1cc2c(cc1Br)CC(SC)=NN=C2c1ccc([N+](=O)[O-])cc1 |
| 77 to 82 | CCCCCCNC(=O)OC1CCN(C(=O)Oc2ccc(Oc3ccccc3)cc2)CC1 |
| 249 to 251 | O=C1Nc2cccc(Cl)c2C(=O)N2C=CC[C@@H]12 |
| 94 to 95 | CC(C)(C)OC(=O)NCCc1ccc(CC(=O)O)cc1 |
| 111 to 113 | CC(C)c1nc(C(C)C)c(CN2CCN(c3ccccc3)CC2)c(-c2ccc(F)cc2)c1CO |
| 158 to 160 | CCOC(=O)CNC(=O)c1nc2ccc(NCCCN3CCC(OC(c4ccccc4)c4ccccc4)CC3)nn2c1C |
| 162 to 163 | Cn1cc(-c2ccc(O)cc2)c(=O)c(-c2cccc(C(F)(F)F)c2)c1 |
| 207 | Cc1cc2cc(CN3CCCCCC3)cnc2cc1NC(=O)c1ccc(-c2cc3ccccc3o2)cc1 |
| 76 to 77 | CC(=O)c1nc2cc(Cl)ccc2cc1OCc1ccccc1 |
| 113 to 115 | CCOC(=O)C(=O)c1oc2cc(C)ccc2c1O |
| 120 to 123 | NS(=O)(=O)c1ccc(-c2cnn(Cc3ccccc3)c(=O)c2Cc2ccc(F)cc2)cc1 |
| 104 to 105 | O=C(O)c1cccc(OCCF)c1OCCF |
| 66 to 68 | Brc1ccc(OCCCCCCN2CCN(c3nccs3)CC2)cc1 |
| 88 to 90 | NC(=O)C1(c2ccccc2)CCN(Cc2ccccc2)C1 (stereo not drawn) |
| 153 to 154 | CCCc1nn(C)c(C(N)=O)c1NC(=O)c1ccccc1OCC |
| 290 | CCCCc1nc2ccc(C(=O)O)cc2n1Cc1ccc(C(=O)O)cc1 |
| 154 | COc1ccc(C(O)(CN2CCNC2=O)c2ccccc2)cc1OC (stereo not drawn) |
